Experimental data from PubChem BioAssay AID248 (DTP/NCI, 2004).
“And” between values parts separate entries of the source, which are not always exact repeats. Equal values may be shown once. Toxic doses and inconclusive results are not listed. No stated cut-off is given here; in the data, active means T/C of 150% or more; inactive means T/C below 125%.

System: L1210 leukemia ip in BDF1 mice, survival T/C
Assay: NCI In Vivo Anticancer Drug Screen. Data for tumor model L1210 Leukemia (intraperitoneal) in B6D2F1 (BDF1) mice
Details: endpoint: mean survival time, higher = longer survival
Outline: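 Mice bearing the transplanted tumor received compound or vehicle. Survival of the treated group was divided by that of the vehicle-treated control group to give the ratio.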

[1] = dose: 6.0 mg/kg/injection, schedule: Q01DX009 (ip), vehicle: other
[2] = dose: 12.0 mg/kg/injection, schedule: Q01DX009 (ip), vehicle: other
[3] = dose: 50.0 mg/kg/injection, schedule: Q01DX009 (ip), vehicle: saline with Tween-80
[4] = dose: 100.0 mg/kg/injection, schedule: Q01DX009 (ip), vehicle: saline with Tween-80
[5] = dose: 100.0 mg/kg/injection, schedule: Q01DX001 (ip), vehicle: carboxymethylcellulose (CMC)
[6] = dose: 200.0 mg/kg/injection, schedule: Q01DX001 (ip), vehicle: carboxymethylcellulose (CMC)
[7] = dose: 400.0 mg/kg/injection, schedule: Q01DX001 (ip), vehicle: carboxymethylcellulose (CMC)
[8] = dose: 100.0 mg/kg/injection, schedule: Q04DX003 (ip), vehicle: Klucel (hydroxypropylcellulose) (HPC)
[9] = dose: 200.0 mg/kg/injection, schedule: Q04DX003 (ip), vehicle: Klucel (hydroxypropylcellulose) (HPC)
[10] = dose: 400.0 mg/kg/injection, schedule: Q04DX003 (ip), vehicle: Klucel (hydroxypropylcellulose) (HPC)
[11] = dose: 100.0 mg/kg/injection, schedule: Q01DX001 (ip), vehicle: saline with Tween-80
[12] = dose: 100.0 mg/kg/injection, schedule: Q04DX003 (ip), vehicle: saline with Tween-80
[13] = dose: 200.0 mg/kg/injection, schedule: Q01DX001 (ip), vehicle: saline with Tween-80
[14] = dose: 200.0 mg/kg/injection, schedule: Q01DX009 (ip), vehicle: saline with Tween-80
[15] = dose: 200.0 mg/kg/injection, schedule: Q04DX003 (ip), vehicle: saline with Tween-80
[16] = dose: 50.0 mg/kg/injection, schedule: Q01DX001 (ip), vehicle: carboxymethylcellulose (CMC)
[17] = dose: 100.0 mg/kg/injection, schedule: Q01DX001 (ip), vehicle: saline
[18] = dose: 200.0 mg/kg/injection, schedule: Q01DX001 (ip), vehicle: saline

Measured: T/C

CC(C)(O)CC(O)(C(F)(F)F)C(F)(F)F
inactive: [1] 94 % of control | [2] 100 % of control | dose: 25.0 mg/kg/injection, schedule: Q01DX009 (ip), vehicle: other 105 % of control and 106 % of control and 86 % of control | dose: 50.0 mg/kg/injection, schedule: Q01DX009 (ip), vehicle: other 97 % of control | dose: 100.0 mg/kg/injection, schedule: Q01DX009 (ip), vehicle: other 98 % of control

Cc1nc(Cl)c(C(N)=O)nc1C
inactive: dose: 25.0 mg/kg/injection, schedule: Q01DX009 (ip), vehicle: saline with Tween-80 91 % of control | [3] 96 % of control | [4] 96 % of control and 97 % of control

CC(=O)CCC(CCC(C)=O)(CCC(C)=O)[N+](=O)[O-]
inactive: [5] 104 % of control | [6] 104 % of control | [7] 98 % of control

COc1ccc(N(Cc2ccccc2)c2nn[nH]n2)cc1
inactive: [8] 93 % of control | [9] 90 % of control | [10] 97 % of control

CCCCCCCCN(C)/N=N/c1nc[nH]c1C(N)=O
inactive: dose: 100.0 mg/kg/injection, schedule: Q01DX009 (ip), vehicle: Klucel (hydroxypropylcellulose) (HPC) 113 % of control

COP(=O)(O)Oc1ccccc1
inactive: dose: 87.5 mg/kg/injection, schedule: Q01DX009 (ip), vehicle: saline with Tween-80 100 % of control | dose: 175.0 mg/kg/injection, schedule: Q01DX009 (ip), vehicle: saline with Tween-80 100 % of control

Nc1ccnc2snnc12
inactive: [3] 96 % of control | dose: 50.0 mg/kg/injection, schedule: Q04DX003 (ip), vehicle: saline with Tween-80 93 % of control | [11] 111 % of control | [4] 90 % of control | [12] 102 % of control | [13] 98 % of control | [14] 95 % of control | [15] 107 % of control

CC1(C)[C@H]2CC[C@@]1(C)C(=O)[C@H]2[N+](=O)[O-]
inactive: [8] 103 % of control | [9] 86 % of control | [10] 93 % of control

CCOC(=O)c1ccc(NCc2cnc3nc(N)nc(N)c3n2)cc1
inactive: dose: 3.0 mg/kg/injection, schedule: Q01DX009 (ip), vehicle: other 106 % of control | [1] 102 % of control | [2] 98 % of control | dose: 24.0 mg/kg/injection, schedule: Q01DX009 (ip), vehicle: other 98 % of control

O=C(O)CSc1ccc([N+](=O)[O-])cn1
inactive: dose: 6.25 mg/kg/injection, schedule: Q01DX001 (ip), vehicle: carboxymethylcellulose (CMC) 108 % of control | dose: 12.5 mg/kg/injection, schedule: Q01DX001 (ip), vehicle: carboxymethylcellulose (CMC) 111 % of control | dose: 25.0 mg/kg/injection, schedule: Q01DX001 (ip), vehicle: carboxymethylcellulose (CMC) 104 % of control | dose: 37.5 mg/kg/injection, schedule: Q01DX001 (ip), vehicle: carboxymethylcellulose (CMC) 104 % of control | [16] 115 % of control | [5] 101 % of control | [6] 103 % of control | [7] 101 % of control

CCOC(=O)N1CCc2nc3ccc(Cl)cc3cc21
inactive: [11] 95 % of control | [4] 104 % of control | [13] 93 % of control | [14] 110 % of control | dose: 400.0 mg/kg/injection, schedule: Q01DX001 (ip), vehicle: saline with Tween-80 98 % of control | dose: 400.0 mg/kg/injection, schedule: Q01DX009 (ip), vehicle: saline with Tween-80 106 % of control

NC1CC2C=CCC(C1)C2 (centres undefined)
inactive: [17] 95 % of control | [18] 94 % of control

Cc1ccc(NC(=O)NCCBr)cc1C
inactive: [8] 96 % of control | [9] 93 % of control | [10] 95 % of control

CC(=O)OC1CCP(C)(=O)C1 (centres undefined)
inactive: dose: 100.0 mg/kg/injection, schedule: Q04DX003 (ip), vehicle: saline 98 % of control | dose: 200.0 mg/kg/injection, schedule: Q04DX003 (ip), vehicle: saline 96 % of control | dose: 400.0 mg/kg/injection, schedule: Q04DX003 (ip), vehicle: saline 93 % of control

C=C(Cl)CN1CCCC(=O)c2ccccc21
inactive: dose: 100.0 mg/kg/injection, schedule: Q01DX009 (ip), vehicle: saline 100 % of control | dose: 200.0 mg/kg/injection, schedule: Q01DX009 (ip), vehicle: saline 94 % of control | dose: 400.0 mg/kg/injection, schedule: Q01DX009 (ip), vehicle: saline 96 % of control

COc1ccc(CC2NCCc3cc(OC)c(OC)cc32)cc1OC (centres undefined)
inactive: dose: 75.0 mg/kg/injection, schedule: Q01DX001 (ip), vehicle: saline 101 % of control

CCCCCCCCCCCCCCCCCCNC(=S)Nc1ccccc1
inactive: [12] 95 % of control | [15] 90 % of control | dose: 400.0 mg/kg/injection, schedule: Q04DX003 (ip), vehicle: saline with Tween-80 92 % of control

CCOC(C(=O)N(C)CCN(C)CCc1ccccc1)(c1ccccc1)c1ccccc1
inactive: [17] 105 % of control | [18] 94 % of control

CC1=NN(c2ccccc2)C(=O)C1N=Nc1ccc(S(=O)(=O)Nc2ncccn2)cc1 (centres undefined)
inactive: [5] 100 % of control | [6] 94 % of control | [7] 89 % of control

Cc1cc(-n2cnc3c(Cl)ncnc32)ccc1[N+](=O)[O-]
inactive: [16] 110 % of control | [5] 101 % of control | [6] 98 % of control | [7] 112 % of control

ONc1ccc(Cl)cc1
inactive: dose: 6.25 mg/kg/injection, schedule: Q01DX009 (ip), vehicle: gum acacia 105 % of control | dose: 12.5 mg/kg/injection, schedule: Q01DX001 (ip), vehicle: gum acacia 104 % of control | dose: 12.5 mg/kg/injection, schedule: Q01DX009 (ip), vehicle: gum acacia 100 % of control | dose: 12.5 mg/kg/injection, schedule: Q04DX003 (ip), vehicle: gum acacia 100 % of control | dose: 25.0 mg/kg/injection, schedule: Q01DX001 (ip), vehicle: gum acacia 104 % of control | dose: 25.0 mg/kg/injection, schedule: Q04DX003 (ip), vehicle: gum acacia 98 % of control | dose: 50.0 mg/kg/injection, schedule: Q01DX001 (ip), vehicle: gum acacia 100 % of control

CCCCCCCCOP(=O)(N1CC1)N1CC1
inactive: dose: 1.0 mg/kg/injection, schedule: Q01DX015 (ip), vehicle: saline 94 % of control | dose: 2.0 mg/kg/injection, schedule: Q01DX015 (ip), vehicle: saline 95 % of control | dose: 4.0 mg/kg/injection, schedule: Q01DX015 (ip), vehicle: saline 97 % of control | dose: 8.0 mg/kg/injection, schedule: Q01DX001 (ip), vehicle: saline 119 % of control | dose: 50.0 mg/kg/injection, schedule: Q01DX015 (ip), vehicle: saline 92 % of control
active: dose: 8.2 mg/kg/injection, schedule: Q01DX015 (ip), vehicle: saline 163 % of control | dose: 10.5 mg/kg/injection, schedule: Q01DX015 (ip), vehicle: saline 165 % of control and 166 % of control | dose: 12.4 mg/kg/injection, schedule: Q01DX015 (ip), vehicle: saline 204 % of control | dose: 16.0 mg/kg/injection, schedule: Q01DX015 (ip), vehicle: saline 209 % of control | dose: 18.0 mg/kg/injection, schedule: Q01DX015 (ip), vehicle: saline 235 % of control | dose: 18.6 mg/kg/injection, schedule: Q01DX015 (ip), vehicle: saline 214 % of control | dose: 28.0 mg/kg/injection, schedule: Q01DX001 (ip), vehicle: saline 153 % of control | dose: 33.5 mg/kg/injection, schedule: Q01DX015 (ip), vehicle: saline 207 % of control | dose: 44.4 mg/kg/injection, schedule: Q01DX001 (ip), vehicle: saline 150 % of control | dose: 66.7 mg/kg/injection, schedule: Q01DX001 (ip), vehicle: saline 157 % of control and 170 % of control | dose: 150.0 mg/kg/injection, schedule: Q01DX001 (ip), vehicle: saline 213 % of control

O=c1[nH]cnc2ccc([N+](=O)[O-])cc12
inactive: dose: 50.0 mg/kg/injection, schedule: Q04DX003 (ip), vehicle: Klucel (hydroxypropylcellulose) (HPC) 101 % of control | [8] 103 % of control

CN(C)c1ccc(C=Nc2ccc(/C=C3\C=Cc4ccccc43)cc2)cc1
inactive: [16] 91 % of control | [5] 93 % of control | [6] 96 % of control | [7] 96 % of control
